The nature of one data set: in vitro. The data set is classed as cell-based, human. As to conditions: human, differentiated hl-60 cells, 300 μmol/L, about 24 hours, PMA-differentiated HL-60 cells, LDH; no-treatment 0%, cell lysis buffer 100%; read-out: cytotoxicity (%) Evaluation compound results. On the procedure: An HL-60 cell line (human acute promyelocytic leukemia cells) was successively cultured in RPMI 1640 containing 20% fetal bovine serum (FBS) at 37° C. in 95% atmosphere/5% CO2. Before evaluation, the cells were pre-cultured for about 72 hours in the presence of 10 nM phorbol 12-myristate 13-acetate (PMA) to induce macrophage-like differentiation.
Evaluation compounds were dissolved in DMSO to obtain 30 mmol/L solutions (or suspensions). Each DMSO solution was diluted 100-fold with RPMI 1640 containing 2% FBS (final concentration of the compound: 300 μmol/L) to obtain a treatment solution. The culture supernatant of the differentiated HL-60 cells was removed, and each treatment solution was added and cultured for about 24 hours, followed by cytotoxicity evaluation.
The activity of lactate dehydrogenase (LDH) was measured in the treatment solutions exposed to the cells for about 24 hours by using a commercial kit (Cytotoxicity LDH Assay Kit-WST, Dojindo Laboratories) and a plate reader (Tecan Infinite M1000). The obtained measurement values were used to calculate cytotoxicity (%) as comparison values for each evaluation compound-treated group, with the no-treatment group taken as 0% and the cell lysis buffer-treated group taken as 100%. The test was conducted in triplicate in three wells each, and the average values were used as adopted values.

A short description of data set [1]: Study for confirmation of conversion to brexpiprazole in a buffer (stability of the evaluation compounds). The following applies: in buffer, average of duplicate; for Concentration of brexpiprazole formed: 60-minute reaction sample; for Concentration of evaluation compound decreased: decrease in 60-minute vs 0-minute reaction sample. The data set is classed as physicochemical. An outline of the steps:
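Compounds (final 1 μmol/L, from 100 μmol/L working solutions) incubated in buffer at 37° C. for 0 or 60 min, in duplicate, after 3 min pre-incubation of the reaction solution. Reactions stopped with acetonitrile/isopropanol (4:1) containing internal standards; compound and formed brexpiprazole quantified against 0.01–1 μmol/L calibration samples.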

Molecules are shown by their SMILES.

On to `O=c1ccc2ccc(OCCCC[N+]3(COP(=O)([O-])O)CCN(c4cccc5sccc45)CC3)cc2[nH]1` [EX 2, (4-(benzo[b]thiophen-4-yl)-1-((4-((2-oxo-1,2-dihydroquinolin-7-yl)oxy)butyl)piperazin-1-ium-1-yl)methyl hydrogen phosphate], for which the cytotoxicity at 24 h, 300 µM in the data set “in vitro” was -7%. Also, in data set [1], the “Concentration of brexpiprazole formed” value worked out at 0 nM and the “Concentration of evaluation compound decreased” value was determined as 0 nM.

Consider `O=c1ccc2ccc(OCCCC[N+]3(COP(=O)([O-])OCCCCO)CCN(c4cccc5sccc45)CC3)cc2[nH]1` [EX 10, (4-(benzo[b]thiophen-4-yl)-1-(4-((2-oxo-1,2-dihydroquinolin-7-yl)oxy)butyl)piperazin-1-ium-1-yl)methyl (4-hydroxybutyl) phosphate], for which the cytotoxicity at 24 h, 300 µM in the data set “in vitro” was -6%. Besides, in data set [1], the “Concentration of brexpiprazole formed” value was 0 nM and the “Concentration of evaluation compound decreased” value was -20 nM.

With `O=c1ccc2ccc(OCCCC[N+]3(COP(=O)([O-])OCCCCCCCCO)CCN(c4cccc5sccc45)CC3)cc2[nH]1` [EX 11, (4-(benzo[b]thiophen-4-yl)-1-(4-((2-oxo-1,2-dihydroquinolin-7-yl)oxy)butyl)piperazin-1-ium-1-yl)methyl (8-hydroxyoctyl) phosphate], the cytotoxicity at 24 h, 300 µM in the data set “in vitro” is 16%. Besides, in data set [1], the “Concentration of brexpiprazole formed” value was 0 nM and the “Concentration of evaluation compound decreased” value worked out at 30 nM.

On to `COCCOP(=O)([O-])OC[N+]1(CCCCOc2ccc3ccc(=O)[nH]c3c2)CCN(c2cccc3sccc23)CC1` [EX 12, (4-(benzo[b]thiophen-4-yl)-1-(4-((2-oxo-1,2-dihydroquinolin-7-yl)oxy)butyl)piperazin-1-ium-1-yl)methyl (2-methoxyethyl) phosphate], for which, in the data set “in vitro”, the cytotoxicity at 24 h, 300 µM was -7%. Further, in data set [1], the “Concentration of brexpiprazole formed” value was 0 nM and the “Concentration of evaluation compound decreased” value came out at 20 nM.

As for `CC(C)C(=O)OCOP(=O)([O-])OC[N+]1(CCCCOc2ccc3ccc(=O)[nH]c3c2)CCN(c2cccc3sccc23)CC1` [EX 24, (4-(benzo[b]thiophen-4-yl)-1-(4-((2-oxo-1,2-dihydroquinolin-7-yl)oxy)butyl)piperazin-1-ium-1-yl)methyl ((isobutyryloxy)methyl) phosphate], the cytotoxicity at 24 h, 300 µM in the data set “in vitro” came to 10%. For the same molecule, in data set [1], the “Concentration of brexpiprazole formed” value was determined as 0 nM and the “Concentration of evaluation compound decreased” value was -110 nM.

For the molecule `CCCCCCCC(=O)OC(C)OP(=O)([O-])OC[N+]1(CCCCOc2ccc3ccc(=O)[nH]c3c2)CCN(c2cccc3sccc23)CC1` (stereo not drawn) [EX 26, (4-(benzo[b]thiophen-4-yl)-1-(4-((2-oxo-1,2-dihydroquinolin-7-yl)oxy)butyl)piperazin-1-ium-1-yl)methyl (1-(octanoyloxy)ethyl) phosphate], in “in vitro”, the cytotoxicity at 24 h, 300 µM was -5%. Further, in data set [1], the “Concentration of brexpiprazole formed” value was 0 nM and the “Concentration of evaluation compound decreased” value worked out at 50 nM.

As for `COCCC(=O)OCOP(=O)([O-])OC[N+]1(CCCCOc2ccc3ccc(=O)[nH]c3c2)CCN(c2cccc3sccc23)CC1` [EX 28, (4-(benzo[b]thiophen-4-yl)-1-(4-((2-oxo-1,2-dihydroquinolin-7-yl)oxy)butyl)piperazin-1-ium-1-yl)methyl (((3-methoxypropanoyl)oxy)methyl) phosphate], the cytotoxicity at 24 h, 300 µM in the data set “in vitro” was -8%. In addition, in data set [1], the “Concentration of brexpiprazole formed” value was -10 nM and the “Concentration of evaluation compound decreased” value is -70 nM.

In the case of `CCOCCC(=O)OCOP(=O)([O-])OC[N+]1(CCCCOc2ccc3ccc(=O)[nH]c3c2)CCN(c2cccc3sccc23)CC1` [EX 29, (4-(benzo[b]thiophen-4-yl)-1-(4-((2-oxo-1,2-dihydroquinolin-7-yl)oxy)butyl)piperazin-1-ium-1-yl)methyl (((3-ethoxypropanoyl)oxy)methyl) phosphate], in “in vitro”, the cytotoxicity at 24 h, 300 µM was -4%. Besides, in data set [1], the “Concentration of brexpiprazole formed” value was found to be 0 nM and the “Concentration of evaluation compound decreased” value was -10 nM.

As to `CCOC(=O)CC(C)(C)CC(=O)OCOP(=O)([O-])OC[N+]1(CCCCOc2ccc3ccc(=O)[nH]c3c2)CCN(c2cccc3sccc23)CC1` [EX 32, (4-(benzo[b]thiophen-4-yl)-1-(4-((2-oxo-1,2-dihydroquinolin-7-yl)oxy)butyl)piperazin-1-ium-1-yl)methyl (((5-ethoxy-3,3-dimethyl-5-oxopentanoyl)oxy)methyl) phosphate], the cytotoxicity at 24 h, 300 µM in the data set “in vitro” came to 5%. For the same molecule, in data set [1], the “Concentration of brexpiprazole formed” value is 0 nM and the “Concentration of evaluation compound decreased” value was determined as 10 nM.

Regarding `COCCOC(=O)OCOP(=O)([O-])OC[N+]1(CCCCOc2ccc3ccc(=O)[nH]c3c2)CCN(c2cccc3sccc23)CC1` [EX 33, (4-(benzo[b]thiophen-4-yl)-1-(4-((2-oxo-1,2-dihydroquinolin-7-yl)oxy)butyl)piperazin-1-ium-1-yl)methyl ((((2-methoxyethoxy)carbonyl)oxy)methyl) phosphate], the cytotoxicity at 24 h, 300 µM in the data set “in vitro” is -7%. For the same molecule, in data set [1], the “Concentration of brexpiprazole formed” value turned out to be 0 nM and the “Concentration of evaluation compound decreased” value stood at 0 nM.

Regarding `COCCOCCOC(=O)OCOP(=O)([O-])OC[N+]1(CCCCOc2ccc3ccc(=O)[nH]c3c2)CCN(c2cccc3sccc23)CC1` [EX 34, (4-(benzo[b]thiophen-4-yl)-1-(4-((2-oxo-1,2-dihydroquinolin-7-yl)oxy)butyl)piperazin-1-ium-1-yl)methyl (3-oxo-2,4,7,10-tetraoxaundecyl) phosphate], the cytotoxicity at 24 h, 300 µM in “in vitro” is -10%. Further, in data set [1], the “Concentration of brexpiprazole formed” value came out at 0 nM and the “Concentration of evaluation compound decreased” value was 10 nM.

As for `COCCOCCOCCOC(=O)OCOP(=O)([O-])OC[N+]1(CCCCOc2ccc3ccc(=O)[nH]c3c2)CCN(c2cccc3sccc23)CC1` [EX 35, (4-(benzo[b]thiophen-4-yl)-1-(4-((2-oxo-1,2-dihydroquinolin-7-yl)oxy)butyl)piperazin-1-ium-1-yl)methyl (3-oxo-2,4,7,10,13-pentaoxatetradecyl) phosphate], the cytotoxicity at 24 h, 300 µM in “in vitro” is -9%. Besides, in data set [1], the “Concentration of brexpiprazole formed” value turned out to be 0 nM and the “Concentration of evaluation compound decreased” value is -20 nM.

For `COCCCCOC(=O)OCOP(=O)([O-])OC[N+]1(CCCCOc2ccc3ccc(=O)[nH]c3c2)CCN(c2cccc3sccc23)CC1` [EX 36, (4-(benzo[b]thiophen-4-yl)-1-(4-((2-oxo-1,2-dihydroquinolin-7-yl)oxy)butyl)piperazin-1-ium-1-yl)methyl ((((4-methoxybutoxy)carbonyl)oxy)methyl) phosphate], the cytotoxicity at 24 h, 300 µM in “in vitro” was -10%. In data set [1], the “Concentration of brexpiprazole formed” value was 0 nM and the “Concentration of evaluation compound decreased” value was -40 nM.

With `CC(O)CCOP(=O)([O-])OC[N+]1(CCCCOc2ccc3ccc(=O)[nH]c3c2)CCN(c2cccc3sccc23)CC1` (stereo not drawn) [EX 40, (4-(benzo[b]thiophen-4-yl)-1-(4-((2-oxo-1,2-dihydroquinolin-7-yl)oxy)butyl)piperazin-1-ium-1-yl)methyl (3-hydroxybutyl) phosphate], the cytotoxicity at 24 h, 300 µM in the data set “in vitro” is -5%. In data set [1], the “Concentration of brexpiprazole formed” value turned out to be 0 nM and the “Concentration of evaluation compound decreased” value worked out at 60 nM.

Consider `CC(C)(O)CCOP(=O)([O-])OC[N+]1(CCCCOc2ccc3ccc(=O)[nH]c3c2)CCN(c2cccc3sccc23)CC1` [EX 41, (4-(benzo[b]thiophen-4-yl)-1-(4-((2-oxo-1,2-dihydroquinolin-7-yl)oxy)butyl)piperazin-1-ium-1-yl)methyl (3-hydroxy-3-methylbutyl) phosphate], for which the cytotoxicity at 24 h, 300 µM in “in vitro” was -3%. Moreover, in data set [1], the “Concentration of brexpiprazole formed” value turned out to be 0 nM and the “Concentration of evaluation compound decreased” value stood at 70 nM.

On to `O=c1ccc2ccc(OCCCC[N+]3(COP(=O)([O-])OC/C=C/CO)CCN(c4cccc5sccc45)CC3)cc2[nH]1` [EX 42, (E)-(4-(benzo[b]thiophen-4-yl)-1-(4-((2-oxo-1,2-dihydroquinolin-7-yl)oxy)butyl)piperazin-1-ium-1-yl)methyl (4-hydroxybut-2-en-1-yl) phosphate], for which, in the data set “in vitro”, the cytotoxicity at 24 h, 300 µM was 8%. Besides, in data set [1], the “Concentration of brexpiprazole formed” value was 0 nM and the “Concentration of evaluation compound decreased” value came out at 30 nM.

For `O=c1ccc2ccc(OCCCC[N+]3(COP(=O)([O-])OC/C=C\CO)CCN(c4cccc5sccc45)CC3)cc2[nH]1` [EX 43, (Z)-(4-(benzo[b]thiophen-4-yl)-1-(4-((2-oxo-1,2-dihydroquinolin-7-yl)oxy)butyl)piperazin-1-ium-1-yl)methyl (4-hydroxybut-2-en-1-yl) phosphate], the cytotoxicity at 24 h, 300 µM in the data set “in vitro” is -6%. Also, in data set [1], the “Concentration of brexpiprazole formed” value came out at 0 nM and the “Concentration of evaluation compound decreased” value amounted to 120 nM.

Values taken from patent US20260285888A1, “HETEROCYCLIC COMPOUND AND USE THEREOF” (OTSUKA PHARMACEUTICAL CO., LTD., priority 2023, published 2026).
